Test results: ChEMBL document CHEMBL5620382, “Fluoroindole chalcone analogues targeting the colchicine binding site of tubulin for colorectal oncotherapy” (Eur J Med Chem, 2023)
Activity calls are given as the source filed them. The rule behind the calls is not given here.

Each compound was assayed on HCT-116 (assay: Antiproliferative activity against human HCT116 cells assessed as inhibition of proliferation measured after 24 hrs by CCK-8 assay). Conditions: HCT-116, 24 h.
Format: functional, cell-based
`CC(=O)O[C@H]1C(=O)[C@@]2(C)[C@H]([C@H](OC(=O)c3ccccc3)[C@]3(O)C[C@H](OC(=O)[C@H](O)[C@@H](NC(=O)c4ccccc4)c4ccccc4)C(C)=C1C3(C)C)[C@]1(OC(C)=O)CO[C@@H]1C[C@@H]2O` [PACLITAXEL] was tested, and the IC50 was 24 nM. In the case of `COc1ccc(/C=C\c2cc(OC)c(OC)c(OC)c2)cc1O` [COMBRETASTATIN A4], the IC50 is reported as 15.8 nM.

The compounds below were run on HCT-116 (assay: Cytotoxicity against human HCT-116 cells assessed as growth inhibition measured after 48 hrs by CCK-8 assay). Conditions: not given.
Format: functional
With `C/C(=C\c1c[nH]c2ccccc12)C(=O)c1ccccc1` the GI50 was > 15000 nM. Compound `COc1ccc2c(/C=C(\C)C(=O)c3cc(OC)c(OC)c(OC)c3)c[nH]c2c1` has a GI50 of 74 nM. `COc1cc(C(=O)/C(C)=C/c2c[nH]c3cc(C)ccc23)cc(OC)c1OC` showed a GI50 of 46 nM. `COc1cc(C(=O)/C(C)=C/c2c[nH]c3ccc([N+](=O)[O-])cc23)cc(OC)c1OC` gave a GI50 of 74 nM. In the case of `COc1cc(C(=O)/C(C)=C/c2c[nH]c3cccc(C)c23)cc(OC)c1OC`, the GI50 is reported as 602 nM. For `COc1cc(C(=O)/C(C)=C/c2cnc3ccccn23)cc(OC)c1OC`, the GI50 was 71 nM. Compound `COc1cc(C(=O)/C(C)=C/c2c[nH]c3c(C)cccc23)cc(OC)c1OC` has a GI50 of 107 nM. `COc1cc(C(=O)/C(C)=C/c2c[nH]c3ccc(Br)cc23)cc(OC)c1OC` was tested, and the GI50 was > 8000 nM. For `COc1cc(C(=O)/C(C)=C/c2c[nH]c3cc([N+](=O)[O-])ccc23)cc(OC)c1OC`, the GI50 was 76 nM. In the case of `COc1cccc(C(=O)/C(C)=C/c2c[nH]c3ccccc23)c1`, the GI50 is reported as 348 nM. Compound `COc1cc(C(=O)/C(C)=C/c2c[nH]c3ccncc23)cc(OC)c1OC` has a GI50 of 1080 nM. `COc1cncc(C(=O)/C(C)=C/c2c[nH]c3ccccc23)c1` showed a GI50 of 240 nM. For `COc1cc(C(=O)/C(C)=C/c2c[nH]c3c([N+](=O)[O-])cccc23)cc(OC)c1OC`, the GI50 was 91 nM. `COc1cccc2c1CC/C(=C\c1c[nH]c3ccccc13)C2=O` was tested, and the GI50 was > 10000 nM. Compound `COc1cc(C(=O)/C(C)=C/c2c[nH]c3ccc(C)cc23)cc(OC)c1OC` has a GI50 of 71 nM. For `COc1cc(C(=O)/C(C)=C/c2c[nH]c3ccccc23)cc2c1OCO2`, the GI50 was 61 nM. Work on `COc1cc(C(=O)/C(C)=C/c2c[nH]c3cnccc23)cc(OC)c1OC` yielded a GI50 of 821 nM. `COc1cc(C(=O)/C(C)=C/c2csc3ccccc23)cc(OC)c1OC` was tested, and the GI50 was 200 nM. `COc1cc(C(=O)/C(C)=C/c2c[nH]c3ncccc23)cc(OC)c1OC` gave a GI50 of 49 nM. Work on `COc1cc(C(=O)/C(C)=C/c2c[nH]c3cccnc23)cc(OC)c1OC` yielded a GI50 of 59 nM. `COc1cc(C(=O)/C(C)=C/c2cnn3ccccc23)cc(OC)c1OC` gave a GI50 of 79 nM. `COc1cc(C(=O)/C(C)=C/c2c[nH]c3ccc(Cl)cc23)cc(OC)c1OC` gave a GI50 of 70 nM. Compound `COc1ccc(C(=O)/C(C)=C/c2c[nH]c3ccccc23)cc1OC` has a GI50 of 74 nM. For `COc1cc(C(=O)/C(C)=C/c2c[nH]c3ccccc23)cc(OC)c1OC`, the GI50 was 0.99 nM. Compound `COc1cc(C(=O)/C(C)=C/c2c[nH]c3ccc(F)cc23)cc(OC)c1OC` has a GI50 of 29 nM. Work on `COc1cc(C(=O)/C(C)=C/c2c[nH]c3cc(N)ccc23)cc(OC)c1OC` yielded a GI50 of 69 nM. With `COc1cc(C(=O)/C(C)=C/c2c[nH]c3cc(C(=O)O)ccc23)cc(OC)c1OC` the GI50 was > 10000 nM. Work on `COc1cc(OC)cc(C(=O)/C(C)=C/c2c[nH]c3ccccc23)c1` yielded a GI50 of 65 nM. Work on `COC(=O)c1ccc2c(/C=C(\C)C(=O)c3cc(OC)c(OC)c(OC)c3)c[nH]c2c1` yielded a GI50 of 536 nM. Compound `CC/C(=C\c1c[nH]c2ccccc12)C(=O)c1cc(OC)c(OC)c(OC)c1` has a GI50 of 43 nM. For `O=C(/C=C/c1c[nH]c2ccccc12)c1ccccc1`, the GI50 was > 10000 nM.

The compounds below were run on HCT-116 (assay: Anti-tumor activity against human HCT-116 cells xenografted in BALB/c mouse assessed as inhibition of tumor growth at 7 mg/kg, ip thrice a week for three weeks). Conditions: time 3.0 weeks.
Format: functional, organism-based
With `CC(=O)O[C@H]1C(=O)[C@@]2(C)[C@H]([C@H](OC(=O)c3ccccc3)[C@]3(O)C[C@H](OC(=O)[C@H](O)[C@@H](NC(=O)c4ccccc4)c4ccccc4)C(C)=C1C3(C)C)[C@]1(OC(C)=O)CO[C@@H]1C[C@@H]2O` [PACLITAXEL] the Activity was “Active”.
